pIC50: −log10 of the molar value.
Columns and labels:
[1] = Oral bioavailability in mouse at 20 mg/kg, IG administered single dose; format: ADME, organism-based; conditions: in vivo
[2] = MRT in mouse at 100 mg/kg, IG administered single dose; format: ADME, organism-based; conditions: in vivo, po
[3] = AUC (0 to t) in mouse at 100 mg/kg, IG administered single dose; format: ADME, organism-based; conditions: in vivo, po
[4] = Tmax in mouse at 100 mg/kg, IG administered single dose; format: ADME, organism-based; conditions: in vivo, po
Mus musculus [5] = assay: Neuroprotective effect against transient middle cerebral artery occlusion (tMCAO) mouse model assessed as infarct volume in TTC-stained brain slices at 3 mg/kg, iv administered 3 hrs after reperfusion (reference value: 59 +/- 2.4%); format: functional
[6] = AUC (0 to infinitive) in mouse at 1 mg/kg, iv administered single dose; format: ADME, organism-based; conditions: in vivo
[7] = Tmax in mouse at 1 mg/kg, iv administered single dose; format: ADME, organism-based; conditions: in vivo
[8] = Cmax in mouse at 1 mg/kg, iv administered single dose; format: ADME, organism-based; conditions: in vivo
[9] = Cmax in mouse at 20 mg/kg, IG administered single dose; format: ADME, organism-based; conditions: in vivo, po
[10] = AUC (0 to t) in mouse at 1 mg/kg, iv administered single dose; format: ADME, organism-based; conditions: in vivo
[11] = Tmax in mouse at 20 mg/kg, IG administered single dose; format: ADME, organism-based; conditions: in vivo, po
Mus musculus [12] = assay: Neuroprotective effect against transient middle cerebral artery occlusion (tMCAO) (60 mins ischemia/24 hrs reperfusion) mouse model assessed as infarct volume in TTC-stained brain slices at 3 mg/kg, iv once daily for 7 days (reference value: 39.6 +/- 1.3%); format: functional; conditions: 1 h
Mus musculus [13] = assay: Neuroprotective effect against transient middle cerebral artery occlusion (tMCAO) mouse model assessed as infarct volume in TTC-stained brain slices at 1 mg/kg, iv administered 3 hrs after reperfusion (reference value: 59 +/- 2.4%); format: functional
[14] = AUC (0 to infinity) in mouse at 100 mg/kg, IG administered single dose; format: ADME, organism-based; conditions: in vivo, po
[15] = MRT in mouse at 20 mg/kg, IG administered single dose; format: ADME, organism-based; conditions: in vivo, po
[16] = AUC (0 to infinitive) in mouse at 20 mg/kg, IG administered single dose; format: ADME, organism-based; conditions: in vivo, po
[17] = Half life in mouse at 1 mg/kg, iv administered single dose; format: ADME, organism-based; conditions: in vivo
[18] = Half life in mouse at 20 mg/kg, IG administered single dose; format: ADME, organism-based; conditions: in vivo, po
[19] = target: Transient receptor potential cation channel subfamily M member 2 (Homo sapiens, UniProt O94759); assay: Inhibition of TRPM2 channel (unknown origin) in doxycycline-inducible human HEK-293T cells assessed as inhibition of ADPR activated current by measuring inhibition rate at +80 mV to -80 mV at 1 uM by whole-cell patch clamp electrophysiology relative to control; format: cell-based
Chain of Transient receptor potential cation channel subfamily M member 2 (O94759 whole entry, the tested form may be a part): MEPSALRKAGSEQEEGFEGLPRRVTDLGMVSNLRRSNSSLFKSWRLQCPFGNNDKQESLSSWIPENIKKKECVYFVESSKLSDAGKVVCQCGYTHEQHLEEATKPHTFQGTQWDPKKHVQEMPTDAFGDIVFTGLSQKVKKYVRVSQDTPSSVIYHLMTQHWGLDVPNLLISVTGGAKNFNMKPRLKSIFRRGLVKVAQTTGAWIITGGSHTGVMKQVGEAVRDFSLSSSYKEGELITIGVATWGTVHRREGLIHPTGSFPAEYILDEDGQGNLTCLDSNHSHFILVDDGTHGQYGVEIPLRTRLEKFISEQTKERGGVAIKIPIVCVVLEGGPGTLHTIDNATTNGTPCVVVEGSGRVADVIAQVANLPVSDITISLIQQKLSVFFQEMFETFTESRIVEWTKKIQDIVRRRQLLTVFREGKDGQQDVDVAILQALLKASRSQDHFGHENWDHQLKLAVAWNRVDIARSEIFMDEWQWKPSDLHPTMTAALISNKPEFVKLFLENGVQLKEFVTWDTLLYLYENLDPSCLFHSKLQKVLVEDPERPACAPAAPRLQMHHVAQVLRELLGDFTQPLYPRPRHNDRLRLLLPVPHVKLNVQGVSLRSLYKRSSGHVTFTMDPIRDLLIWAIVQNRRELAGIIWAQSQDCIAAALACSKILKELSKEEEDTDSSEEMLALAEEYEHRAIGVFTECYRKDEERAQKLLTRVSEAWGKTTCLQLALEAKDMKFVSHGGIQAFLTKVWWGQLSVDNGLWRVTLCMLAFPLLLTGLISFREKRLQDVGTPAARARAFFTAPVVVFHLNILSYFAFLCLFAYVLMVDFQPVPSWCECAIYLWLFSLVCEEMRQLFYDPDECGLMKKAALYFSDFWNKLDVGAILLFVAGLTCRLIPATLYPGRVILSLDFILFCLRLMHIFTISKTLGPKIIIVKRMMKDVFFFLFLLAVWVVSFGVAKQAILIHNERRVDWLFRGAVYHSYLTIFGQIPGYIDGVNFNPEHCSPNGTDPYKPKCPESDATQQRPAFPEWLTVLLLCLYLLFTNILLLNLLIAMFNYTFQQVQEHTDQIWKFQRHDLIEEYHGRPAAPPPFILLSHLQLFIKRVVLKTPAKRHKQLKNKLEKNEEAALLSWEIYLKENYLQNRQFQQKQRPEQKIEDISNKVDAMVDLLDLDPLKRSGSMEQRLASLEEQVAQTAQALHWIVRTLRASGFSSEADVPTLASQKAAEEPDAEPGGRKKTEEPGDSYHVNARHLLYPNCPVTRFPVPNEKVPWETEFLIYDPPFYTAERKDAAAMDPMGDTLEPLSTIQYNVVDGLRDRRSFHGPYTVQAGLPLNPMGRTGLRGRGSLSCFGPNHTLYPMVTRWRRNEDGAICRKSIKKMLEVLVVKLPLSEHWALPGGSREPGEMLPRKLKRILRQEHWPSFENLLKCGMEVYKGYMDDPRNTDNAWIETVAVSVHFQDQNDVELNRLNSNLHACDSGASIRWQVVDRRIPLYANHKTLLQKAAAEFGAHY

Mus musculus [20] = assay: Neuroprotective effect against transient middle cerebral artery occlusion (tMCAO) mouse model assessed as infarct volume in TTC-stained brain slices at 3 mg/kg, iv administered 24 hrs after reperfusion (reference value: 4.3 +/- 0.3%); format: functional
[21] = Cmax in mouse at 100 mg/kg, IG administered single dose; format: ADME, organism-based; conditions: in vivo, po
[22] = Oral bioavailability in mouse at 100 mg/kg, IG administered single dose; format: ADME, organism-based; conditions: in vivo
[23] = AUC (0 to t) in mouse at 20 mg/kg, IG administered single dose; format: ADME, organism-based; conditions: in vivo, po
[24] = Half life in mouse at 100 mg/kg, IG administered single dose; format: ADME, organism-based; conditions: in vivo, po
[25] = MRT in mouse at 1 mg/kg, iv administered single dose; format: ADME, organism-based; conditions: in vivo
Mus musculus [26] = assay: Neuroprotective effect against transient middle cerebral artery occlusion (tMCAO) mouse model assessed as infarct volume in TTC-stained brain slices at 0.3 mg/kg, iv administered 3 hrs after reperfusion (reference value: 59 +/- 2.4%); format: functional
[27] = Clearance in mouse at 1 mg/kg, iv administered single dose; format: ADME, organism-based; conditions: in vivo
Mus musculus [28] = assay: Neuroprotective effect against transient middle cerebral artery occlusion (tMCAO) mouse model assessed as infarct volume in TTC-stained brain slices at 1 mg/kg, iv administered 24 hrs after reperfusion (reference value: 4.3 +/- 0.3%); format: functional

## CCN(CC)C(=O)c1cc(C(=O)c2ccccc2)n2cccc2c1
[1]
  bioavailability: 50%
[2]
  MRT: 3.16 h
[3]
  AUC(0-t): 10600 ng·h/mL
[4]
  Tmax: 1.1 h
Mus musculus [5]
  Activity: 30.7%
[6]
  AUC(0-inf): 220 ng·h/mL
[7]
  Tmax: 5.4 min
[8]
  Cmax: 260 ng/mL
[9]
  Cmax: 330 ng/mL
[10]
  AUC(0-t): 220 ng·h/mL
[11]
  Tmax: 0.83 h
Mus musculus [12]
  Activity: 23.4%
Mus musculus [13]
  Activity: 39.4%
[14]
  AUC: 11740 ng·h/mL
[15]
  MRT: 2.65 h
[16]
  AUC: 2410 ng·h/mL
[17]
  half-life: 0.86 h
[18]
  half-life: 2.62 h
[19]
  pIC50: 5.64
Mus musculus [20]
  Activity: 2.3%
[21]
  Cmax: 1520 ng/mL
[22]
  bioavailability: 48.2%
[23]
  AUC(0-t): 2200 ng·h/mL
[24]
  half-life: 2.83 h
[25]
  MRT: 1.24 h
Mus musculus [26]
  Activity: 51.5%
[27]
  clearance: 75.8 mL/min/kg

## CC1=NN(c2ccccc2)C(=O)C1 [EDARAVONE]
Mus musculus [5]
  Activity: 40.6%
Mus musculus [12]
  Activity: 38.9%
Mus musculus [28]
  Activity: 2.8%
Mus musculus [20]
  Activity: 3%

## O=C(c1ccccc1)c1cc(C(=O)N2CCCCC2)cc2cccn12
[19]
  pIC50: 5.55

## O=C(c1ccccc1)c1cc(C(=O)N2CCCC2)cc2cccn12
[19]
  pIC50: 5.51

## O=C(c1ccccc1)c1cc(C(=O)N2CCOCC2)cc2cccn12
[19]
  pIC50: 5.54
